# Legend:
# [1] = molecular target: T1, α-synuclein (αS) type A* oligomers (Homo sapiens, UniProt P37840, N122C); experiment: dcFCCS binding of labelled peptide to αS type A* oligomers
# T1 construct: made in house; host or cells: Escherichia coli BL21 (DE3), pET21a
# [2] = molecular target: T2, α-synuclein (αS) sonicated fibrils (Homo sapiens, UniProt P37840, N122C); experiment: dcFCCS binding of labelled peptide to αS sonicated fibrils
# T2 construct: made in house; host or cells: Escherichia coli BL21 (DE3), pET21a
# Protocol: (§1) This variant was expressed and purified as described above but including 5 mM DTT in all purification steps. The protein was labeled with maleimide-modified Alexa Fluor 488 (AF488) (Invitrogen, Carlsbad, USA) for 15–20 h at 4 °C in the dark. After quenching the reaction with 10 mM DTT, free unreacted dye in the protein solution was subsequently separated using a P10 desalting column (GE Healthcare, Waukesha, USA), and the labeled protein solution was flash frozen with liquid nitrogen and stored at −80 °C. […] The same labeling and purification strategy were followed as for αS, although in this case the unreacted free dye was removed from the protein solution using a polyacrylamide desalting column (Thermo Fisher Scientific, Waltham, USA).
# (§2) For the isolation of type B* oligomers purified αS was dialyzed against Milli-Q water and lyophilized for 48 h in aliquots of 6 mg. The aliquots were resuspended in 500 μL of PBS pH 7.4 to a final concentration of ca. 800 μM, filtered through 0.22 μm filters and incubated at 37 °C without agitation for 20–24 h.
# [3] = molecular target: T3, α-synuclein (αS) type B* oligomers (Homo sapiens, UniProt P37840, N122C); experiment: dcFCCS binding of labelled peptide to αS type B* oligomers
# T3 construct: made in house; host or cells: Escherichia coli BL21 (DE3), pET21a
# Protocol: as §1, §2
# [4] = test system: α-synuclein (αS) amyloid aggregation; experiment: αS amyloid aggregation kinetics by thioflavin-T fluorescence; format: biochemical; conditions: 70 μM αS with 35, 14, 7 (3.5) μM peptide, PBS, 37 °C
# Protocol: αS amyloid aggregation was monitored in a 96 wells plate (non-treated) (Sarstedt, Germany) containing Teflon polyballs (1/8′′ diameter) (Polysciences Europe GmbH, Eppelheim, Germany) as described by Pujols and coworkers. Each well contained 150 μL solutions of 70 μM αS in PBS buffer with 40 μM thioflavin-T and the corresponding concentration of peptide. Plates were incubated at 37 °C, 100 rpm in an orbital culture shaker Max-Q 4000 (Thermo Fisher Scientific, Waltham, USA). Aggregation was analyzed every 2 h using a Victor3.0 Multilabel Reader Software-PerkinElmer 2030. (PerkinElmer, Waltham, USA). End-point measurements were performed after 32 h of incubation. Fluorescence intensity was measured in triplicate by exciting with a 430–450 nm filter and collecting the emission with a 480–510 nm filter. The resulting kinetics were normalized to the maximum fluorescence of the αS control (untreated).
# [5] = molecular target: α-synuclein sonicated amyloid fibrils (AF488-labelled αS N122C) (UniProt P37840); experiment: dual-color fluorescence cross-correlation spectroscopy (dcFCCS)
# [6] = molecular target: α-synuclein type A* oligomers (AF488-labelled αS N122C) (UniProt P37840); experiment: as above
# [7] = molecular target: α-synuclein type B* oligomers (AF488-labelled αS N122C) (UniProt P37840); experiment: as above
# [8] = molecular target: α-synuclein N122C labelled with Alexa Fluor 488, monomer (UniProt P37840); experiment: FCS molecular brightness; sonicated fibril sample; brightness of the aggregates compared with that of the αS monomer; average number of αS molecules per aggregate
compound,measurement,setting,value
CC[C@H](C)[C@H](NC(=O)[C@H](CCCCN)NC(=O)[C@H](CCC(=O)O)NC(=O)[C@H](CCCCN)NC(=O)[C@H](CO)NC(=O)[C@H](CCCCN)NC(=O)[C@H](CCCNC(=N)N)NC(=O)[C@H](Cc1ccccc1)NC(=O)[C@H](Cc1ccccc1)NC(=O)[C@H](CC(=O)O)NC(=O)CNC(=O)[C@H](CC(C)C)NC(=O)[C@@H](N)CC(C)C)C(=O)NCC(=O)N[C@@H](CCCCN)C(=O)N[C@@H](CCC(=O)O)C(=O)N[C@@H](Cc1ccccc1)C(=O)N[C@@H](CCCCN)C(=O)N[C@@H](CCCNC(=N)N)C(=O)N[C@H](C(=O)N[C@H](C(=O)N[C@@H](CCC(N)=O)C(=O)N[C@@H](CCCNC(=N)N)C(=O)N[C@H](C(=O)N[C@@H](CCCCN)C(=O)N[C@@H](CC(=O)O)C(=O)N[C@@H](Cc1ccccc1)C(=O)N[C@@H](CC(C)C)C(=O)N[C@@H](CCCNC(=N)N)C(=O)N[C@@H](CC(N)=O)C(=O)N[C@@H](CC(C)C)C(=O)N[C@H](C(=O)N1CCC[C@H]1C(=O)N[C@@H](CCCNC(=N)N)C(=O)N[C@H](C(=O)N[C@@H](CCC(=O)O)C(=O)N[C@@H](CO)C(=O)O)[C@@H](C)O)C(C)C)[C@@H](C)CC)C(C)C)[C@@H](C)CC [LL-37],Kd,[1],1.92 nM
same,Kd,[2],5.14 nM
same,Kd,[3],3.62 nM
"LELLAKLLKLLKDLLGKLL [All_Leu19, variant of All-Leu devoid of the last three C-terminal residues]","anti-aggregation (inhibitory) activity, Th-T titration",[4],retained the inhibitory activity
LELLEELLKLLEDLLKKLL [Anionic_scaffold],"anti-aggregation (inhibitory) activity, Th-T titration",[4],does not inhibit
"LELLEKLLKLLKDLLKKLL [Scaffold_19, only Leu, Asp, Glu and Lys]","anti-aggregation (inhibitory) activity, Th-T titration",[4],same anti-aggregation activity than the parental variant
LL-37 with a single engineered N-terminal cysteine labelled with Atto647N (peptide),stoichiometry N (binding sites per aggregate),[5],181
same,stoichiometry N (binding sites per aggregate),[6],3
same,stoichiometry N (binding sites per aggregate),[7],64
"α-synuclein N122C labelled with Alexa Fluor 488, monomer (from UniProt P37840 1-140) (natural protein)",stoichiometry N (αS molecules per aggregate),[8],107

# Source: PMC8213730, “α-Helical peptidic scaffolds to target α-synuclein toxic species with nanomolar affinity” (Nature Communications, 2021)
